Assay results from US20240279190A1, “COMPOUNDS FOR MODULATING PLATELET-TYPE 12-(S)-LIPOXYGENASE AND METHODS OF USE FOR SAME” (The Regents of The University of California, priority 2021, published 2024).

Key:
[1] = target: T1, 12-LOX mutant L407G/A417I/V418M (Homo sapiens, UniProt P18054, A417I/L407G/V418M); assay: UV-Vis-based IC50 assay, L407G/A417I/V418M mutant; format: biochemical
T1 construct: 6xHis (N); made in house; pFastBac1 shuttle vector
T1 sequence (P18054 1-663 L407G/A417I/V418M): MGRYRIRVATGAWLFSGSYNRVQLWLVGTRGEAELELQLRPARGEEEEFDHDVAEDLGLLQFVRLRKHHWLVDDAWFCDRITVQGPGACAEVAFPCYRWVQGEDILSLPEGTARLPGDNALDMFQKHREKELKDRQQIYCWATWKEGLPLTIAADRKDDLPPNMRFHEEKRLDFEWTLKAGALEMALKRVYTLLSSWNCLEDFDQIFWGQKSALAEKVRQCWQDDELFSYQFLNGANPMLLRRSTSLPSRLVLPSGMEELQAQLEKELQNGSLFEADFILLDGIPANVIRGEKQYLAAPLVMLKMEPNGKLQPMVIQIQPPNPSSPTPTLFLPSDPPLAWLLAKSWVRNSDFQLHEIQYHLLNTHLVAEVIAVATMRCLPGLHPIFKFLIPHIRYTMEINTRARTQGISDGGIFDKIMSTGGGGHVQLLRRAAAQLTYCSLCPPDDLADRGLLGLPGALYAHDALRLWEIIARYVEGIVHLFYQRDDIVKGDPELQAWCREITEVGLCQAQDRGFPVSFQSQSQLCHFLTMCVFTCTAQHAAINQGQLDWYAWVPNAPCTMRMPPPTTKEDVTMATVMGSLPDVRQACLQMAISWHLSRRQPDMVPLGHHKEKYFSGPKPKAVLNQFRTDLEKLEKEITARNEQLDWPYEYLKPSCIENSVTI
From the text: Based on the ML355 binding mode predicted by the modeling, all residues within 5 Å of any atom of ML355 were selected for experimental mutagenesis. The selected residues were replaced with amino acids with either bulkier or smaller side chains in order to determine what specific interactions play a role in inhibitor binding. […] The numbering refers to the UniProt accession number P18054 sequence, with the N-terminal methionine assigned as amino acid number one. The primers for all mutants were designed using the online QuikChange Primer Design tool (http://www.genomics.agilent.com/primerDesignProgram.jsp) from Agilent Technologies (CA, USA). The mutations were introduced by using the QuikChange® II XL site-directed mutagenesis kit from Agilent, following the instructions in the protocol provided. […]
The wild type 12-LOX (wt-12-LOX) enzyme and its mutants were expressed as fusion proteins, with an N-terminal 6×His tag, and were affinity purified by nickel-iminodiacetic acid agarose using FPLC (Biorad).
The percent inhibition was determined by comparing the enzyme rates of the control (DMSO solvent) and the inhibitor sample by following the formation of the conjugated diene product at 234 nm (ε=25,000 M^−1cm^−1). […] The substrate concentration was quantitatively determined by allowing the enzymatic reaction to go to completion in the presence of soybean LOX-1. […]

[2] = tested on: other LOX isozymes (h5-LOX, h15-LOX-1, h15-LOX-2); assay: Inhibitor selectivity against other LOX isozymes; format: biochemical, human
From the text: The wild type 12-LOX (wt-12-LOX) enzyme and its mutants were expressed as fusion proteins, with an N-terminal 6×His tag, and were affinity purified by nickel-iminodiacetic acid agarose using FPLC (Biorad). For inhibitor selectivity, human 5-LOX (h5-LOX, UniProt entry P09917), human reticulocyte 15-LOX-1 (h15-LOX-1, UniProt entry P16050) and human epithelial 15-LOX-2 (h15-LOX-2, UniProt entry 015296) were also isolated. The purity of all the proteins, except h5-LOX, was greater than 90% as determined by SDS-PAGE analysis. h5-LOX was an ammonium sulfate fraction due to the extensive loss of activity upon purification.
IC50 values of ML355 against 12-LOX and its mutants were determined in a similar manner as the steady state kinetic values. The percent inhibition was determined by comparing the enzyme rates of the control (DMSO solvent) and the inhibitor sample by following the formation of the conjugated diene product at 234 nm (ε=25,000 M^−1cm^−1). The reactions were initiated by adding 200 nM 15-LOX-2, 30 nM 12-LOX, 40 nM 15-LOX-1, or approximately 100-300 nM (total protein) of 5-LOX ammonium sulfate fraction to a cuvette with 2 mL reaction buffer, constantly stirred using a magnetic stir bar at room temperature (22° C.). […] The substrate concentration was quantitatively determined by allowing the enzymatic reaction to go to completion in the presence of soybean LOX-1. […]

Question: With `COc1cccc(CNc2ccc(S(=O)(=O)Nc3nc4c(ccc5ccccc54)s3)cc2)c1O` [Compound LOX-12-001, 4-((2-hydroxy-3-methoxybenzyl)amino)-N-(naphtho[1,2-d]thiazol-2-yl)benzenesulfonamide] as the compound, how does the IC50 [1] read?
Answer: > 150 µM

Question: What about the inhibition at 20 µM ([1]; 20 uM inhibitor, read-out: Percent inhibition at 20 uM inhibitor) of the same compound?
Answer: 10%

Question: What about the “selectivity against other LOX isozymes” value [2] of the same compound?
Answer: maintained
